Drawing on a melting point compilation (Tetko et al.; mined from patent text by program, amines drawn as free bases though some values may be those of a salt), this text covers melting point for 86 compounds.

As a reminder, the melting point is the temperature, or range, at which the solid turns liquid. `CCCCn1c(=O)c(NC(=O)Nc2c(C(C)C)cc(NCc3cccnc3)cc2C(C)C)c(-c2cccc(OC)c2)c2cccnc21` yielded a melting point of 160 to 161 °C.
Regarding `CC(C(=O)O)N1CCC(C)(CS)C1=O` (stereo unspecified), the melting point was 132 to 133 °C.
The compound `O=C(C=Cc1ccc(Cl)c(C(F)(F)F)c1)NN1CC(=O)NC1=O` had a melting point of 270 to 273 °C.
Compound `O=C(OCC=C(c1ccccc1)[N+](=O)[O-])C(F)(F)C(F)(F)C(F)(F)C(F)(F)C(F)(F)C(F)(F)C(F)(F)F` gave a melting point of 79 to 81 °C.
The value for `CCOC(=O)CN1CC(OC)=CC1=O` was 54 to 56 °C.
As to `CN1C(=O)C(c2ccncc2)(c2ccc(OC(F)F)cc2)N=C1N` (stereo unspecified), the melting point lay within 193 to 195 °C.
As to `CC(C)(C)c1ccc(OCC(O)CCCl)cc1` (stereo unspecified), the melting point is 45 to 47 °C.
`CCCCc1nc2cc3ccccc3cc2n1Cc1ccc(C#N)cc1` had a melting point of 138 °C.
In the case of `CO[C@@H]1CN(CCCOc2ccc(F)cc2)CC[C@@H]1NC(=O)c1cc(Cl)c(N)cc1O` (relative stereo), the melting point lay within 146 to 148 °C.
`CCSC(=O)c1c(C(F)(F)F)nc(C(F)F)c(C(=O)OC)c1NC(C)C` gave a melting point of 56 to 59 °C.
In turn, `Cc1cc(C2=CC(C)(C)CC(C)(C)C2CO)ccc1F` (stereo unspecified) registered a melting point of 40 to 42 °C.
The value for `O=C(O)CC1ON(C(=O)OCc2ccccc2)C(=O)C1N1C(=O)c2ccccc2C1=O` (stereo unspecified) was 160 to 162 °C; that for `CCOC(=O)c1ccc(/C=C(\CC)c2ccc3c(c2)C(C)(C)CCC3(C)C)cc1` was 82 to 83 °C; that for `CO[C@@H]1[C@@H](OC)[C@H](C)O[C@@H](OC(=O)Nc2ccc(-c3ncn(-c4ccc(OC(F)(F)F)cc4)n3)cc2)[C@@H]1OC` was 186 to 188 °C.
Compound `COc1cccc(OC)c1CNC(=O)Cc1c(-c2ccccc2C)c2cc(Cl)ccc2oc1=O` gave a melting point of 194 to 196 °C.
Regarding `CN(C)CCCOc1cc(F)c(-c2c(Cl)nc3nccn3c2NCC(F)(F)F)c(F)c1`, the melting point lay within 52 to 55 °C.
The compound `CC(=O)NC[C@H]1CN(c2ccc(N3CCC(n4nnc(N5CCN(C#N)CC5)n4)CC3)c(F)c2)C(=O)O1` returned a melting point of 208 to 210 °C.
Consider `CSC(C)=NOC(=O)N(C)SN(C(C)C)P1(=O)OCCCO1`, for which the melting point was 134 to 135 °C.
The value for `O=C1Nc2cc(C(F)(F)F)ccc2C1c1cc(Cl)ccc1O` (stereo unspecified) was 266 to 268 °C; that for `CC(C)Oc1ccc2c(c1)Oc1cc(F)ccc1S2(=O)=O` was 135 to 136 °C.
On to `CN1C(=O)CC(C(=O)Nc2nccs2)C(=O)c2ccc(Cl)cc21` (stereo unspecified), for which the melting point is 238 to 240 °C.
Turning to `CCCCN1C(=O)NC(CO)C1=O` (stereo unspecified), the melting point was determined as 93 °C.
Compound `O=C(O)c1ccc(C(F)F)c2ccccc12` showed a melting point of 179 to 180 °C.
To `CC(=O)Oc1c(C)c(C)c2c(c1C)CC(C)(C(=O)Nc1cnc3c(C)cc(C)cc3c1-c1ccccc1Cl)O2` (stereo unspecified) belongs 259 to 261 °C.
To `O=C(NO)C1(S(=O)(=O)c2ccc(Oc3ccc(Cl)cc3)cc2)CCN(Cc2ccccc2)CC1` belongs 90.4 °C; to `CC#CC(O)(c1ccc(C)cc1C)c1ccc(C)cc1C`, 64 to 65 °C.
Turning to `O=C(OCc1ccccc1)N1CCN(c2cc(=O)[nH]cn2)CC1`, the melting point fell in the range of 247 to 249 °C.
Regarding `N#CC=Cc1ccc(Cc2ncc[nH]2)cc1`, the melting point was in the range of 118 to 120 °C.
To `Fc1ccc(-c2cc(C(F)(F)F)n3ncc(-c4ccncc4)c3n2)cc1Cl` belongs 265 °C; to `CC(C)(C)c1ccc(C(=O)Nc2cn3cc(-c4ccsc4)ccc3n2)cc1`, 261 to 263 °C; to `CN(CCOc1ccc(N)cc1)c1ccncc1`, 141 to 142 °C.
For `CC(C)c1c(CO)c(-c2ccc(F)cc2)c2ccccn12`, the melting point was in the range of 90 to 92 °C.
`CC(C)C1NC(=S)N(c2ccc(N(C)C)c3ccccc23)C1=O` (stereo unspecified) had a melting point of 108 to 110 °C.
For `COc1cc2c(cc1Br)-c1cc3c(n1CC2)C(=O)N(C(C)(C)C)CCC3`, the melting point is 163 to 165 °C.
The value for `Nc1cc(Cl)nc(Cl)c1N` was 186 to 188 °C; that for `CN1CCOc2cc(S(=O)(=O)n3c(COC(C)(C)C(=O)O)cc4cc(Cl)ccc43)ccc21` was 148 to 150 °C.
`CC(C)(C)OC(=O)C(F)=CC1C(C(=O)OC(C#N)c2cccc(Oc3ccccc3)c2)C1(C)C` (stereo unspecified) showed a melting point of 103 °C.
Take `Cc1ncc(N)cc1Nc1nccc(-c2cccnc2)n1`: the melting point turned out to be 135 °C.
Take `O=C(NC(CS)Cc1ccccc1)N1CCCCCC1` (single isomer, unassigned; (+)): the melting point was found to be 102 °C.
On to `CC(CO)c1ccc2oc3nc(N)c(C(=O)O)cc3c(=O)c2c1` (stereo unspecified), for which the melting point is above 300 °C.
As to `COc1ccc(CN(C(=S)Nc2ccccc2)c2ccc(NNC(C)=O)cc2)cc1`, the melting point was 126 to 128 °C.
`Fc1ccc(N2CC3CCC2CN3Cc2ccccc2)cc1` (stereo unspecified) yielded a melting point of 74 to 76 °C.
On to `CCCc1nc2ccccc2n1Cc1ccc(-c2ncccc2C(=O)O)cc1`, for which the melting point fell in the range of 238 to 239 °C.
As to `COC(=O)c1ccccc1-n1c(CCl)nc2c(C)cccc2c1=O`, the melting point was 168 to 169 °C.
Compound `C#CCN1C(=O)C2(CCCC2)c2ccccc21` gave a melting point of 109 to 111 °C.
In turn, `CCCCCNC(=O)N1CCC(c2nc(C3=NOC(c4ccccc4)C3)cs2)CC1` (stereo unspecified) yielded a melting point of 132 to 134 °C.
In turn, `CCOc1cc(O[Si](C)(C)C(C)(C)C)c(C)c(C(=O)OCc2ccc([N+](=O)[O-])cc2)c1C` displayed a melting point of 75 to 76 °C.
With `Cc1ccccc1NC(=O)Nn1c(=O)c(=O)[nH]c2ccccc21`, the melting point was above 300 °C.
In the case of `COc1ccc(CCCN2C=CC=C3C2=Nc2cc(C)ccc2S(=O)(=O)N3C)cc1`, the melting point was in the range of 130 to 131 °C.
For the compound `CCCCc1c(-c2cccnn2)ssc1=S`, the melting point was 94 °C.
`CCC(=O)Nc1c(C(=O)c2cc(Cl)ccn2)[nH]c2cc(Cl)ccc12` gave a melting point of 188 to 190 °C.
With `Cc1ccc(-c2occc2C(N)=O)cc1`, the melting point was found to be 174 °C.
Take `Nc1cccc(-c2ccc(CCN3CCN(CCc4ccccc4)CC3)cc2)n1`: the melting point was in the range of 111 to 113 °C.
The value for `O=C1c2ccccc2CN1CCCSc1ccncc1` was 73 to 74.5 °C; that for `CC(C)Cn1c(C(C)O)nc2cnc3ccccc3c21` (stereo unspecified) was 152 to 166 °C; that for `O=C(NCCCC(=O)N1CCCC1=O)c1cc(Br)no1` was 141 to 142 °C.
Compound `CC(=O)NC1Cc2ccc(S(=O)(=O)Cl)cc2C1` (stereo unspecified) had a melting point of 237 to 239 °C.
Consider `CN1CCN(c2c(F)c(N)c3c(=O)c(C(=O)O)cn(C4CC4)c3c2F)CCC1=O`, for which the melting point was in the range of 281 to 283 °C.
Take `COC(=O)N=C(NC(=O)OC)Nc1ccc(S(=O)CC(C)C)cc1NC(=O)CS(C)=O` (stereo unspecified): the melting point is 149 to 150 °C.
The value for `N#Cc1c(N2CCN(C(=O)c3cccs3)CC2)c2cc(Cl)cnc2n(Cc2ccccc2)c1=O` was 221 °C; that for `Brc1ccc(C2=CCN(CCSCc3c[nH]c4ccccc34)CC2)cc1` was 166 to 167 °C; that for `COc1ccc(-c2nc(C)c(C(=O)OCC[Si](C)(C)C)s2)cc1` was 80 to 82 °C.
Compound `CCCCCS(=O)(=O)NC(=O)/C=C/c1cc(C2CC2)nn1Cc1ccc(C(F)(F)F)cc1Cl` showed a melting point of 139 to 140 °C.
Compound `Cn1nc(-c2c(F)cccc2Cl)nc1C(=O)c1ccc(Cl)cc1` came in with a melting point of 108 to 111 °C.
`CSCCC(=O)Nc1cc(-c2c(-c3ccc(F)c(C)c3)nc3cccnn23)ccn1` registered a melting point of 158 to 159 °C.
The compound `Cc1nc(C)c2c(n1)N(Cc1ccc(-c3ccccc3-c3nnn[nH]3)cc1)C(=O)C2` gave a melting point of 228 to 229 °C.
The compound `CCOc1cc(Cc2cnc(N)nc2N)cc2c1OC(C)(C)C=C2c1ccncc1` had a melting point of 223 to 226 °C.
In turn, `O=C(O)c1ccc(COc2ccc3cc(-c4ccc(-c5ccccc5)n4Cc4ccc(C(F)(F)F)cc4)ccc3c2)c(C(=O)O)c1` displayed a melting point of 250 to 252 °C.
Compound `COc1cc(OC)c(NC(=O)Nc2ccccc2)cc1O` yielded a melting point of 162 to 164 °C.
`COc1ccc(CC(CSC(C)=O)C(=O)Nc2cccc(C(=O)O)c2)cc1` (stereo unspecified) returned a melting point of 124 to 126 °C.
In turn, `O=C(Nc1ccccc1)Nc1cc(Cl)nc(Cl)c1` registered a melting point of 219 to 222 °C.
To `Clc1ccc2c(c1)C(c1ccccc1)=NCc1c[nH]cc1-2` belongs 203 to 206 °C; to `O=C(O)c1ccc(CNC(=O)[C@@H]2Cc3ccccc3N2S(=O)(=O)c2ccc(I)cc2)cc1`, 110 to 120 °C; to `Cc1nc2c(N)nc3ccccc3c2n1CCOCCNS(=O)(=O)C(C)C`, 172 to 175 °C.
For `Cn1cc(-c2ccc(F)cc2)c(=O)c(-c2cccc(C(F)(F)F)c2)c1`, the melting point fell in the range of 133 to 134 °C.
In turn, `CC1CCC(Oc2ccc(CC(=O)c3ccc4c(c3)CCC4)cc2)(C(=O)O)C1` (stereo unspecified) showed a melting point of 148 to 151 °C.
`O=C(NN1CCCCC1)c1cn(-c2ccc(Br)cc2)c(-c2ccc(Cl)cc2Cl)n1` came in with a melting point of 219 to 221 °C.
For the compound `N#Cc1ccc2c(c1)CCN(C1CCC3(CC1)OCCO3)C2`, the melting point was determined as 127 °C.
Compound `Cc1cc(C(=O)N2Cc3cccn3Cc3ccccc32)ccc1C1=CC(C)(C)CC(C)(C)C1` yielded a melting point of 118 to 120 °C.
To `CCOc1cc(NC(C)=O)c([N+](=O)[O-])cc1C(=O)OC` belongs 110 °C.
Compound `CC(C)(C)OC(=O)N1CCC(c2c[nH]c3ccc(N)cc23)CC1` yielded a melting point of 205 to 207 °C.
Take `N#Cc1c(N2CCCCC2)cc(-c2cccc3ccccc23)c2c1Cc1ccccc1-2`: the melting point fell in the range of 148 to 149 °C.
`COc1cc(CCCC2OC(=O)NC2=O)ccc1OCc1coc(-c2ccccc2)n1` (stereo unspecified) showed a melting point of 134 to 135 °C.
Turning to `Cc1cc(OCc2ccccc2)cc(OCCCc2ccccc2)c1C(=O)O`, the melting point was 109 to 111 °C.
In turn, `Cc1ccc(-c2nn(-c3cccc(C(=O)O)c3)c(N)c2C(N)=O)cc1` returned a melting point of 232 to 235 °C.
The compound `O=C1C(=C2C=C(c3ccccc3)S(=O)(=O)C(c3ccccc3)=C2)C(=O)c2ccccc21` yielded a melting point of 235 to 236 °C.
